Measurements reported in US20230287044A1, “NOVEL ANTIBACTERIAL PEPTIDE AND USE THEREOF” (priority 2020, published 2023).
≈ marks a conversion by molar mass, not a printed value. Where two headings read alike, the source gives them in different places. Square brackets hold non-standard residues; d marks the D form. Peptide text beside a SMILES is read from it.

Experiments:
[1] = tested on: MRPA (P. aeruginosa) CCARM 2180; format: cell-based, Pseudomonas aeruginosa; details: CCARM 2180, 18 h
How it was run: (§1)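 Mid-log cultures grown in CAMHB and diluted to 1× 10^6 cfu/ml in PBS were mixed with an equal volume of peptide in CAMHB (80 µM to 0.63 µM twofold dilutions). MIC taken as the mean of three independent experiments.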

[2] = tested on: MRAB (A. baumannii) ATCC BAA 1605; format: cell-based, Acinetobacter baumannii
How it was run: as §1

[3] = Solubility of antibacterial peptides in solution; format: physicochemical
[4] = tested on: VRE (E. faecalis) ATCC 51575; format: cell-based, Enterococcus faecalis
How it was run: as §1

[5] = tested on: MRSA (S. aureus) KCCM 40510; format: cell-based, Staphylococcus aureus; details: KCCM 40510, 18 h
How it was run: as §1

[6] = tested on: 30 species of Acinetobacter baumannii (A. baumannii); format: cell-based; details: against 30 species of Acinetobacter baumannii
Protocol: In addition, the results obtained by measuring the minimum inhibitory concentrations of KSH29, KSH42 and KSH43 against 30 species of Acinetobacter baumannii (A. baumannii) are shown in Table 4 below.
The minimum inhibitory concentrations (MIC) against the 30 species of Acinetobacter baumannii were measured in the following manner.
The strain 1605 was purchased from ATCC (American Type Culture Collection, USA). In addition, the strain 40203 was purchased from the Korean Culture Center of Microorganisms.
The COL^R refers to resistance to colistin, the TGC^R refers to resistance to tigecycline, and the TGC^I refers to tigecycline intermediate strains.

E. coli = test: In vivo antibacterial activity in mice (survival rate after E. coli infection); design: species or system mice (BALB/c); details: E. coli 1 × 10^6 cfu/mouse subcutaneous; 100 mg/kg after 1, 24 and 48 hours; observed 7 days
Protocol: The results obtained by analyzing the antibacterial activity against bacteria (E. coli) according to treatment with KSH43 as a survival rate of mice (BALB/c, female. 7-weeks) are shown in FIG. 216.
Specifically, the strains were grown in CAMHB until the log phase, and then washed with PBS buffer, and infected by subcutaneous injection into mice to 1 × 10^6 cfu/mouse. After 1 hour, 24 hours, and 48 hours, KSH43 and PBS (negative control) were administered at a dose of 100 mg/kg. Thereafter, the survival rate of the mice was checked every 12 hours for 7 days and compared to measure the in vivo antibacterial activity.

[7] = CAMHB, 37° C., 18 hours, average of three experiments

| SMILES | MIC MRPA (P. aeruginosa) CCARM 2180 [1] [µM] | MIC MRAB (A. baumannii) ATCC BAA 1605 [2, 7] [µM] | solubility at 12 h ([3]; aqueous buffer) [µM] | solubility at 12 h ([3]; plasma or biological fluid) [µM] | solubility at 12 h ([3]; water) [µM] | MIC VRE (E. faecalis) ATCC 51575 [4, 7] [µM] | MIC MRAB (A. baumannii) ATCC BAA 1605 ([2]; ATCC BAA 1605, 18 h) [µM] | MIC VRE (E. faecalis) ATCC 51575 ([4]; ATCC 51575, 18 h) [µM] | MIC MRSA (S. aureus) KCCM 40510 [5] [µM] | MIC50 [6] [µM] | MIC90 [6] [µM] | survival rate of mice (E. coli) |
| --- | --- | --- | --- | --- | --- | --- | --- | --- | --- | --- | --- | --- |
| CC[C@@H](C)[C@@H](NC(=O)[C@@H](Cc1c[nH]c2ccccc12)NC(=O)[C@H](NC(=O)[C@@H](CC(C)C)NC(=O)[C@H](N)Cc1c[nH]c2ccccc12)C(C)C)C(=O)N[C@H](Cc1c[nH]c2ccccc12)C(=O)N[C@H](CCC(N)=O)C(=O)N[C@H](CCCNC(=N)N)C(=O)N[C@H](CCCNC(=N)N)C(=O)N[C@H](CCCNC(=N)N)C(N)=O [KSH30, wlvwiwqrrr] (H-[dW][dL][dV][dW][dI][dW][dQ][dR][dR][dR]-NH2; N-terminus assumed) | >5 | 1.25 (≈ 1.87 µg/mL) | ≥ 25 | 50 (≈ 74.9 µg/mL) | > 2000 | – | – | – | – | – | – | – |
| CC[C@@H](C)[C@@H](NC(=O)[C@@H](Cc1c[nH]c2ccccc12)NC(=O)[C@H](NC(=O)[C@@H](CC(C)C)NC(=O)[C@H](N)Cc1c[nH]c2ccccc12)C(C)C)C(=O)N[C@H](Cc1c[nH]c2ccccc12)C(=O)N[C@H](CCCNC(=N)N)C(=O)N[C@H](CCCNC(=N)N)C(=O)N[C@H](CCC(N)=O)C(=O)N[C@H](CCCNC(=N)N)C(N)=O [KSH31, wlvwiwrrqr] (H-[dW][dL][dV][dW][dI][dW][dR][dR][dQ][dR]-NH2; N-terminus assumed) | >5 | 1.25 (≈ 1.87 µg/mL) | ≥ 100 | 25 (≈ 37.4 µg/mL) | > 2000 | 1.25 (≈ 1.87 µg/mL) | – | – | – | – | – | – |
| CC[C@@H](C)[C@@H](NC(=O)[C@@H](Cc1c[nH]c2ccccc12)NC(=O)[C@H](NC(=O)[C@@H](CC(C)C)NC(=O)[C@H](N)Cc1c[nH]c2ccccc12)C(C)C)C(=O)N[C@H](Cc1c[nH]c2ccccc12)C(=O)N[C@H](CCCNC(=N)N)C(=O)N[C@H](CCCNC(=N)N)C(N)=O [KSH32, wlvwiwrr] (H-[dW][dL][dV][dW][dI][dW][dR][dR]-NH2; N-terminus assumed) | >5 | – | 25 (≈ 30.3 µg/mL) | 50 (≈ 60.7 µg/mL) | > 2000 | – | 1.25 (≈ 1.52 µg/mL) | 1.25 (≈ 1.52 µg/mL) | 1.25 (≈ 1.52 µg/mL) | – | – | – |
| CC[C@@H](C)[C@@H](NC(=O)[C@@H](Cc1c[nH]c2ccccc12)NC(=O)[C@H](NC(=O)[C@@H](CC(C)C)NC(=O)[C@@H](Cc1c[nH]c2ccccc12)NC(=O)[C@H](N)CC(=O)O)C(C)C)C(=O)N[C@H](Cc1c[nH]c2ccccc12)C(=O)N[C@H](CCCNC(=N)N)C(=O)N[C@H](CCCNC(=N)N)C(=O)N[C@H](CCCNC(=N)N)C(N)=O [KSH36, dwlvwiwrrr] (H-[dD][dW][dL][dV][dW][dI][dW][dR][dR][dR]-NH2; N-terminus assumed) | >5 | – | > 200 | 100 (≈ 148 µg/mL) | > 2000 | – | 5 (≈ 7.42 µg/mL) | 2.5 (≈ 3.71 µg/mL) | 25 (≈ 37.1 µg/mL) | – | – | – |
| CC(C)[C@@H](NC(=O)[C@H](N)Cc1c[nH]c2ccccc12)C(=O)N[C@@H](C(=O)N[C@H](Cc1c[nH]c2ccccc12)C(=O)N[C@H](Cc1c[nH]c2ccccc12)C(=O)N[C@@H](C(=O)N[C@H](CCCNC(=N)N)C(=O)N[C@H](CCCNC(=N)N)C(=O)N[C@H](CCCNC(=N)N)C(N)=O)C(C)C)C(C)C [KSH40, wvvwwvrrr] (H-[dW][dV][dV][dW][dW][dV][dR][dR][dR]-NH2; N-terminus assumed) | 5 (≈ 6.71 µg/mL) | – | ≥ 100 | 100 (≈ 134 µg/mL) | > 2000 | – | 1.25 (≈ 1.68 µg/mL) | 1.25 (≈ 1.68 µg/mL) | 1.25 (≈ 1.68 µg/mL) | – | – | – |
| CC[C@@H](C)[C@@H](NC(=O)[C@@H](Cc1c[nH]c2ccccc12)NC(=O)[C@@H](CCCNC(=N)N)NC(=O)[C@@H](CCCNC(=N)N)NC(=O)[C@H](N)CCCNC(=N)N)C(=O)N[C@H](Cc1c[nH]c2ccccc12)C(=O)N[C@@H](C(=O)N[C@H](CC(C)C)C(=O)N[C@H](Cc1c[nH]c2ccccc12)C(=O)N[C@H](CCCCN)C(N)=O)C(C)C [KSH43, rrrwiwvlwk] (H-[dR][dR][dR][dW][dI][dW][dV][dL][dW][dK]-NH2; N-terminus assumed) | 1.25 (≈ 1.87 µg/mL) | 0.63 (≈ 0.944 µg/mL) | > 200 | > 25 | > 2000 | – | – | 0.63 (≈ 0.944 µg/mL) | 0.63 (≈ 0.944 µg/mL) | 0.63 (≈ 0.944 µg/mL) | 1.25 (≈ 1.87 µg/mL) | all mice administered with KSH43 survived for 7 days |
| CC(C)[C@@H](NC(=O)[C@H](N)Cc1c[nH]c2ccccc12)C(=O)N[C@@H](C(=O)N[C@H](Cc1c[nH]cn1)C(=O)N[C@@H](C(=O)N[C@@H](C(=O)N[C@H](Cc1c[nH]c2ccccc12)C(=O)N[C@H](CCCNC(=N)N)C(=O)N[C@H](CCCNC(=N)N)C(=O)N[C@H](CCCNC(=N)N)C(N)=O)C(C)C)C(C)C)C(C)C [KSH45, wvvhvvwrrr] (H-[dW][dV][dV][dH][dV][dV][dW][dR][dR][dR]-NH2; N-terminus assumed) | 2.5 (≈ 3.48 µg/mL) | – | > 200 | 50 (≈ 69.6 µg/mL) | > 2000 | – | 1.25 (≈ 1.74 µg/mL) | 1.25 (≈ 1.74 µg/mL) | 1.25 (≈ 1.74 µg/mL) | – | – | – |
| CC[C@@H](C)[C@@H](NC(=O)[C@@H](Cc1c[nH]c2ccccc12)NC(=O)[C@@H](CCCCN)NC(=O)[C@@H](CCCCN)NC(=O)[C@H](N)CCCCN)C(=O)N[C@H](Cc1c[nH]c2ccccc12)C(=O)N[C@@H](C(=O)N[C@H](CC(C)C)C(=O)N[C@H](Cc1c[nH]c2ccccc12)C(=O)N[C@H](CCCCN)C(N)=O)C(C)C [KSH46, kkkwiwvlwk] (H-[dK][dK][dK][dW][dI][dW][dV][dL][dW][dK]-NH2; N-terminus assumed) | 1.25 (≈ 1.77 µg/mL) | – | > 200 | 200 (≈ 283 µg/mL) | > 2000 | – | 0.63 (≈ 0.891 µg/mL) | 1.25 (≈ 1.77 µg/mL) | 1.25 (≈ 1.77 µg/mL) | – | – | – |
